Test results published in patent publication US20030220482A1, “Novel peptide antagonist of CXCR4 derived from the N-terminus of the viral chemokine vMIP-II” (priority 2000, published 2003).
“Also recorded” adds a separate entry of the source. Peptide text beside a SMILES is read from it.

What was measured:
CCR5 [1] = molecular target: T1, CCR5 (Homo sapiens, UniProt P51681); experiment: 125I-MIP-1β competitive binding to CCR5 (CCR5-transfected 293 cells); details: competitive binding with radiolabeled MIP-1β
T1 construct: expressed in transfected cells; host or cells: 293 cells
Description: ^125I-MIP-1β Competitive Binding to CCR5
Following a similar experimental procedure as described above, 293 cells transfected with CCR5 and ^125I-MIP-1β were used to determine the specific binding activity of peptides to CCR5.

CCR5 [2] = molecular target: T1, CCR5; experiment: Gene reporter cell-cell fusion assay, HIV-1 coreceptor function of CCR5; assay type: cell-based
CCR5 [3] = molecular target: T1, CCR5; experiment: Intracellular calcium influx in CCR5 transfected 293 cells; assay type: cell-based
Procedure: (§1) Sup T1 cells and CCR5 transfected 293 cells were used to measure the intracellular calcium influx. [Ca^2+]i was measured using excitation at 340 and 380 nm on a fluorescence spectrometer (Perkin Elmer LS50). Calibration was performed using 10% Triton X-100 for total fluorophore release and 0.5 M EGTA to chelate free Ca^2+. Intracellular Ca^2+ concentrations were calculated by using the fluorescence spectrometer measurement program.

Sup T1 cells = experiment: Chemotaxis of Sup T1 cells induced by SDF-1; assay type: cell-based
Procedure: Migration of Sup T1 cells was assessed in disposable Transwell trays (Costar, Cambridge, Mass.) with 6.5 -mm diameter chambers and membrane pore size of […]. […] For peptide inhibition experiments, the cells were preincubated with various concentrations of the peptide for 15 min at 25° C. The peptide at the same concentration was also added to the lower well. After incubation at 37° C. and 5% CO2 for 4 h, cells that migrated to the lower well were counted. Chemotactic migration was determined by subtraction of cells migrated in medium alone (Blank control experiment).

CXCR4 [4] = molecular target: T2, CXCR4 (Homo sapiens, UniProt P61073); experiment: anti-CXCR4 mAb 12G5 competitive binding (flow cytometry, Sup T1 cells); set-up: endogenous in cells; details: relative to SDF-1
Procedure: Sup T1 cells (2×10^5) were washed with FACS buffer (0.5% bovine serum albumin, 0.05% sodium azide in PBS) and incubated with an anti-CXCR4 monoclonal antibody (mAb) 12G5 (10 μg/ml) for 30 min at 4° C. After washing with FACS buffer, cells were incubated with 10 μg FITC conjugated goat anti-mouse IgG (Southern Biotechnology Associates, Inc. Birmingham, Ala.) for 30 min at 4° C. After washing twice with FACS buffer, cells were fixed in the fixing buffer (2% palaformaldehyde in PBS) and then analyzed on a FACScan flow cytometer (Coulter EPICS Elite, Coolten Corp., Hialeah, Fla.).

CXCR4 [5] = molecular target: T2, CXCR4; experiment: Intracellular calcium influx in Sup T1 cells; assay type: cell-based; set-up: endogenous in cells
Procedure: as §1

CXCR4 [6] = molecular target: T2, CXCR4; experiment: 125I-SDF-1α competitive binding to CXCR4 (CEM-T4 cells); set-up: endogenous in cells; host or cells: CEM-T4 cells; details: for CXCR4 binding (in words): 125I-SDF-1α competitive binding, FIG. 1
Procedure: ^125I-SDF-1α Competitive Binding to CXCR4
CEM-T4 cells were harvested and washed twice with PBS. […] Nonspecific binding was determined by the addition of 100 nM unlabeled SDF-1α Samples were incubated for 60 min at room temperature. The incubation was terminated by separating the cells from the binding buffer by centrifugation and washing once with 500 μl of cold binding buffer. Bound ligands were quantitated by counting γ emissions.

CXCR4 [7] = molecular target: T2, CXCR4; experiment: Gene reporter cell-cell fusion assay, HIV-1 coreceptor function of CXCR4; assay type: cell-based; set-up: expressed in transfected cells; host or cells: NIH/3T3 cells; details: for inhibition of T- and dual-tropic HIV-1 gp120-mediated cell-cell fusion via CXCR4 (in words): vSC60 (BH10) T-tropic and 89.6 dual-tropic isolates
CXCR4 [8] = molecular target: T2, CXCR4; experiment: CXCR4 internalization; assay type: cell-based; set-up: CEM-T4 cells were harvested and washed twice with PBS; endogenous in cells; host or cells: CEM-T4 cells

T1 sequence (P51681 whole entry): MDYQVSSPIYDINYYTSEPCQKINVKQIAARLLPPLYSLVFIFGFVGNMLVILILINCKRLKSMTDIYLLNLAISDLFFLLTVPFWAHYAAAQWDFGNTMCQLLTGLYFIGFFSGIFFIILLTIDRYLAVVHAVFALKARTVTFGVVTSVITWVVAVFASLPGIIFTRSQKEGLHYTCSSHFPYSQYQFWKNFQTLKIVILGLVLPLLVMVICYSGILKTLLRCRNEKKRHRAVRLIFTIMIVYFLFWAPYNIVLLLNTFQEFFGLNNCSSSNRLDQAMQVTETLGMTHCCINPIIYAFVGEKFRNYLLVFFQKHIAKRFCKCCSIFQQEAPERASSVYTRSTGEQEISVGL
T2 sequence (P61073 whole entry): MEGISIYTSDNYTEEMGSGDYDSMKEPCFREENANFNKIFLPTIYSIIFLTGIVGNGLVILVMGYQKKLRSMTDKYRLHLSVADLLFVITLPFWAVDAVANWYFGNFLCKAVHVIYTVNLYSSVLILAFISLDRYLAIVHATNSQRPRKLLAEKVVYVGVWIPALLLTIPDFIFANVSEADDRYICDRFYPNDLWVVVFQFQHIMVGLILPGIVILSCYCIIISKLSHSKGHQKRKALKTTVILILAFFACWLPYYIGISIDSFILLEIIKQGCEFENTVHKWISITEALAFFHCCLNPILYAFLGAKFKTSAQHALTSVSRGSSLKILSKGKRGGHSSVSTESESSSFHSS

## CC(C)C[C@H](NC(=O)[C@H](CS)NC(=O)[C@H](CS)NC(=O)[C@H](CCCCN)NC(=O)[C@H](CC(=O)O)NC(=O)[C@@H]1CCCN1C(=O)[C@H](CCCNC(=N)N)NC(=O)[C@H](Cc1c[nH]cn1)NC(=O)[C@H](Cc1c[nH]c2ccccc12)NC(=O)[C@H](CO)NC(=O)[C@H](C)NC(=O)CNC(=O)[C@@H](N)CC(C)C)C(=O)NCC(=O)N[C@@H](Cc1ccc(O)cc1)C(=O)N[C@@H](CCC(N)=O)C(=O)N[C@@H](CCCCN)C(=O)N[C@@H](CCCNC(=N)N)C(=O)N1CCC[C@H]1C(=O)N[C@@H](CC(C)C)C(=O)N1CCC[C@H]1C(N)=O [V1] (H-LGASWHRPDKCCLGYQKRPLP-NH2; N-terminus and C-terminus assumed)
CCR5 [1]
  CCR5 binding (in words): did not display any interaction
CCR5 [2]
  effect on M-tropic HIV-1 gp120-mediated cell-cell fusion via CCR5 (in words): displayed no effect
CCR5 [3]
  signaling activity via CCR5 (calcium influx, in words): neither displayed signaling activity
CCR5 [3]; MIP-1β 100 nM
  blocking of signal induced by MIP-1β via CCR5 (in words): nor blocked the signal
Sup T1 cells
  inhibition of chemotactic activity of SDF-1 (in words): inhibit the chemotactic activity of SDF-1 in a concentration dependent manner
CXCR4 [4]
  fold less potent than SDF-1, mAb 12G5 competition: about 33 fold
CXCR4 [5]; peptide 200 μM, SDF-1 100 nM
  blocking of SDF-1 signal (calcium influx, in words): almost completely blocked SDF-1 signal
CXCR4 [5]; various concentrations
  signaling activity via CXCR4 (calcium influx, in words): did not show any signaling activity
CXCR4 [6]; relative to SDF-1
  fold less potent than SDF-1, 125I-SDF-1α competition: ~70 fold
CXCR4 [7]
  inhibition of T- and dual-tropic HIV-1 gp120-mediated cell-cell fusion via CXCR4 (in words): showed inhibition
CXCR4 [8]
  induction of CXCR4 internalization (in words): induction of CXCR4 internalization

## HRPDKCCLGYQKR (v-MIPII derived peptide) [V2, VMIP-II, 6-18]
CCR5 [1]
  CCR5 binding (in words): does not bind
CCR5 [2]
  effect on M-tropic HIV-1 gp120-mediated cell-cell fusion via CCR5 (in words): displayed no effect
CCR5 [3]
  effect on CCR5 signal transduction (in words): did not show any effect
CXCR4 [5]
  effect on CXCR4 signal transduction (in words): did not show any effect
CXCR4 [6]
  CXCR4 binding (in words): significant loss in CXCR4 binding; also recorded: does not bind
CXCR4 [7]
  inhibition of T- and dual-tropic HIV-1 gp120-mediated cell-cell fusion via CXCR4 (in words): did not show any activity

## LGASWHRPDK (v-MIPII derived peptide) [V3, VMIP-II, 1-10]
CXCR4 [6]
  CXCR4 binding (in words): retained some activity

## SDF-1: Recombinant human chemokine, Stromal cell Derived Factor-1, a natural CXCR4 ligand, used as control [reference compound]
CXCR4 [7]; at 200 nM
  inhibition of cell-cell fusion: 45%
